Two substances from patent US20240252660A1, “CARGO MOLECULE TRANSDUCTION DOMAIN RMMR1, VARIANT THEREOF, RECOMBINANT CARGO MOLECULE, AND METHOD FOR TRANSDUCING CARGO MOLECULE USING SAME” (REMEDI CO., LTD., priority 2021, published 2024) can be followed below.

What all share (type): cell-based
In one experiment the test system is cells. Briefly: FACS experiment to verify self-penetration efficacy of FITC peptides (summary statement). The following applies: FITC-labelled peptide, cells not specified. An excerpt:
The present inventors synthesized FITC and conducted a FACS experiment to verify its self-penetration efficacy using the cell-penetrating peptide RMMR1 derived from the human MRPL15 protein.

Another experiment has as its system B16F10 cells. Kind of experiment: RMMR1-FITC synthetic peptide cell penetration efficiency (fluorescence value) in B16F10. The conditions noted are these: 2.5 uM, 2 hours. The protocol:
(§1) HaCaT, 3T3, and B16F10 cells were cultured in cell culture medium supplemented with 10% of fetal bovine serum (FBS) and antibiotic solution (100 units/ml of penicillin, 100 μg/ml of streptomycin) in DMEM medium. Cells were cultured under conditions maintained at 37° C., 95% humidity, and 5% CO2, and when the cells were 70-80% adhered to the culture dish, they were treated with trypsin-EDTA and subcultured. HaCaT cells were distributed and cultured from Professor Kim Tae Yoon of the College of Medicine, The Catholic University of Korea, 3T3 and B16F10 cells were distributed and cultured from the Seoul National University Cell Line Bank. RAW264.7 cells were distributed and cultured from the laboratory of Professor Kim Sang-Beom, College of Pharmacy, Sahmyook University.
(§2) In order to evaluate the cell permeability of RMMR1 in HaCaT, 3T3, B16F10 cells, 1×10^5 of HaCaT cells were attached to a 24-well plate 12 hours in advance. Thereafter, the cells were washed using serum-free DMEM medium and then treated with 2.5 uM of protein in serum-free medium for 2 hours. After 2 hours, the cells were washed a total of 3 times with serum-free medium, and then the cells were detached from the plate by treatment with 150 ul of trypsin, and then neutralized by adding 850 ul of serum-containing medium. […]

The subject of a further experiment is 3T3 cells. Briefly: RMMR1-FITC synthetic peptide cell penetration efficiency (fluorescence value) in 3T3. The following applies: 2.5 uM, 2 hours. The protocol: as §1, §2
A further experiment relates to RAW264.7 cells. Briefly: Antigen-presenting cell penetration efficiency of FITC-attached peptide. The following applies: 2.5 uM, 2 hours, FITC fluorescence. The protocol: as §1
In order to identify the penetration efficiency of RMMR1 into antigen-presenting cells, the transduction efficiency was confirmed using cell line RAW264.7 using a synthetic peptide attached with fluorescent FITC. In the case of cells without FITC attached, it is difficult to identify the permeability of the peptide, so attaching fluorescent FITC makes it easier to identify cell permeability. Each cell line was treated with FITC-attached peptides RMMR1-FITC (SEQ. NO. 1) and TAT-FITC at the same concentration of 2.5 uM for 2 hours.

Where no end group is shown, it is not given here.

As for “ERRPRGRRRGRKC (listed as Homo sapiens) [RMMR1, 13 amino acid cargo molecule transduction domain derived from human MRPL15]”, the “cell penetration compared with HIV-Tat peptide (FITC, FACS)” value in the experiment with cells is recorded as “penetrated cells much better than the HIV-Tat peptide”.

Turning to “RMMR1-FITC: RMMR1 (SEQ ID NO: 1) synthetic peptide attached with fluorescent FITC (ERRPRGRRRGRKC; also: FITC label, attachment site not given here; listed as Homo sapiens)”, the “cell penetration level compared with control TAT-FITC peptide” value in the experiment on B16F10 cells and in the experiment with 3T3 cells was “significantly higher cell penetration level than the control TAT-FITC peptide” in each case. In the experiment with RAW264.7 cells, the “level of cell penetration compared with control TAT-FITC peptide” value is listed as “higher level of cell penetration compared to the control TAT-FITC peptide”.
